Test results as given in publication PMC11111404, “Discovery of potent small-molecule inhibitors of lipoprotein(a) formation” (Nature, 2024).

Legend:
[1] = molecular target: T1, K-2 to K-3 domains of rat plasminogen (Rattus norvegicus, UniProt Q01177); assay: ITC binding to rat plasminogen K-2 to K-3
T1 construct: made in house
T1 sequence (Q01177 184-352 limits assumed): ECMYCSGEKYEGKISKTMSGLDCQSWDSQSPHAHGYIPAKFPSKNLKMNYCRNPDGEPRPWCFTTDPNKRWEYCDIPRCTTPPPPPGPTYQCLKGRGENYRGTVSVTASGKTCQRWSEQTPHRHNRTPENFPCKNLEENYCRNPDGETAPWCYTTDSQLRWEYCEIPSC
Method: (§1) The nucleotide sequence encoding the human LPA gene (NP_005568.2) was inserted into a mammalian expression vector containing a cytomegalovirus promoter. Protein expression was performed by transient transfection of human embryonic kidney 293 (HEK293) cells cultured in serum-free medium. The culture medium was collected five days after transfection and human apo(a) protein was purified using L-lysine affinity chromatography. Nucleotide sequences encoding various KIV domains of human apo(a) and human and rat plasminogen were inserted into a pET21a Escherichia coli expression vector. […] All protein concentrations were determined by A280. […] The microsyringe was loaded with a solution of the respective compounds, with the concentration measured by quantitative nuclear magnetic resonance, and was inserted into the calorimetric cell prefilled with the respective recombinant proteins of known concentration in ITC buffer. […] Thermodynamic parameters were calculated using the basic equation of thermodynamics (ΔG = ΔH - TΔS = -RTlnKd), where ΔG, ΔH and ΔS are the changes in free energy, enthalpy and entropy of binding, respectively; Kd is the equilibrium dissociation constant; T is the absolute temperature ([…]); and R is the gas constant (1.987 cal mol^-1 K^-^1). […]

[2] = molecular target: T2, K-2 to K-3 domains of human plasminogen (Homo sapiens, UniProt P00747); assay: ITC binding to human plasminogen K-2 to K-3
T2 construct: that for the K-2 to K-3 domains of human plasminogen; made in house
T2 sequence (P00747 184-352 limits assumed): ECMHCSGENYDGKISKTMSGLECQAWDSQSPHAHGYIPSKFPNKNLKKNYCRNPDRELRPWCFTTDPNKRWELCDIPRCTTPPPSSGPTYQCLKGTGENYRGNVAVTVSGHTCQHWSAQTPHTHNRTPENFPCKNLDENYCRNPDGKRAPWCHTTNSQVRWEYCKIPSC
Method: as §1

plasmin activity = tested on: plasmin activity; design: method as in PMID 37638695; conditions: human phase 1 study; cited from earlier work

| Compound | Kd [1] [nM] | fold higher affinity for rat than human plasminogen K-2 to K-3 [1] | Kd [2] [nM] | plasmin activity at oral doses lowering Lp(a) (plasmin activity) |
| --- | --- | --- | --- | --- |
| Cl.Cl.O=C(Nc1cccc(C[C@H](C(=O)O)[C@H]2CCNC2)c1)Nc1cccc(C[C@H](C(=O)O)[C@H]2CCNC2)c1 [LSN3441732] | < 10 | more than 100 fold | 1600 | – |
| O=C(O)[C@@H](Cc1cccc(CN(Cc2cccc(C[C@H](C(=O)O)[C@H]3CCNC3)c2)Cc2cccc(C[C@H](C(=O)O)[C@H]3CCNC3)c2)c1)[C@H]1CCNC1 [LY3473329] | – | – | – | without affecting plasmin activity |
